Experimental data from patent US8278453B2, “Quinolizidinone M1 receptor positive allosteric modulators” (Merck Sharp & Dohme Corp., priority 2008, dated 2012).

Target: T1, acetylcholine muscarinic M1 receptor (Homo sapiens, UniProt P11229)
T1 construct: expressed in transfected cells; host or cells: CHOnfat (CHO cells expressing NFAT), line CHOnfat/hM1
T1 sequence (P11229 1-460): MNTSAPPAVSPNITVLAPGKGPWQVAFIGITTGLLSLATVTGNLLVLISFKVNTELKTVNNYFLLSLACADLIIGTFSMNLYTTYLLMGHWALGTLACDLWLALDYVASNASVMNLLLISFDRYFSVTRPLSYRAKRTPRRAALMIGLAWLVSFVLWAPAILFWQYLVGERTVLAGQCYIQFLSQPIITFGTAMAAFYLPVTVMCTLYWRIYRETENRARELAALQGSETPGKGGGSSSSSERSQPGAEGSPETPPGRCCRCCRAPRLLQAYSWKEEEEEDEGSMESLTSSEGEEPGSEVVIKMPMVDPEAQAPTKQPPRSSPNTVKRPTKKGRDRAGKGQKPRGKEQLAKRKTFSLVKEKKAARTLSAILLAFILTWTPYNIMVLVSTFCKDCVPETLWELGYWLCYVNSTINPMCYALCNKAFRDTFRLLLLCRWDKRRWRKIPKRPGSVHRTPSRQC
Assay: muscarinic M1 FLIPR intracellular calcium assay (positive allosteric modulation, EC20 acetylcholine)
Type: cell-based
Conditions: inflection point from FLIPR values; CHOnfat/hM1 cells; 4 min preincubation, then EC20 acetylcholine (3 nM final); read-out: IP Value
Method: The assay studies the effect of one or several concentrations of test compounds on basal or acetylcholine-stimulated Ca^2+ levels using FLIPR.
Compounds are prepared and subjected to a preincubation period of 4 min. Thereafter, a single EC20 concentration of acetylcholine is added to each well (3 nM final). The intracellular Ca^2+ level of each sample is measured and compared to an acetylcholine control to determine any modulatory activity.
Cells: CHOnfat/hM1, hM2, hM3 or hM4 cells are plated 24 hr before the assay at a density of 18,000 cells/well (100 μL) in a 384 well plate. CHOnfat/hM1 and CHOnfat/hM3 Growth Medium: 90% DMEM (Hi Glucose); 10% HI FBS; 2 mM L-glutamine; 0.1 mM NEAA; Pen-Strep; and 1 mg/ml Geneticin, are added. For M2Gqi5CHOnfat and M4Gqi5CHOnfat cells, an additional 600 μg/ml hygromycin is added.
Equipment: 384 well plate, 120 μL addition plate; 96-well Whatman 2 ml Uniplate Incubator, 37° C., 5% CO2; Skatron EMBLA-384 Plate Washer; Multimek Pipetting System; Genesis Freedom 200 System; Mosquito System; Temo Nanolitre Pipetting System; and FLIPR^384 Fluorometric Imaging Plate Reader System are used.
Buffers. Assay Buffer: Hanks Balanced Salt Solution, with 20 mM Hepes, 2.5 mM Probenecid (Sigma P-8761) first dissolved in 1N aqueous NaOH, 1% Bovine Serum Albumin (Sigma A-9647). Dye Loading Buffer: Assay Buffer plus 1% Fetal Bovine Serum and Fluo-4AM/Pluronic Acid Mixture. 2 mM Fluo-4AM ester stock in DMSO (Molecular Probes F-14202) Concentration of 2 μM in buffer for a final concentration of 1 μM in Assay. 20% Pluronic Acid Solution stock, with a concentration of 0.04% in Buffer, 0.02% in Assay.
65 μl of 2 mM Fluo-4AM are mixed with 130 μL of 20% Pluronic Acid. The resulting solution and 650 μL FBS is added to the assay buffer for a total volume of 65 mL. Positive Controls: 4-Br-A23187: 10 mM in DMSO; final concentration 10 μM. […]
After 60 min, the cells are washed three times with 100 μL of buffer, leaving 30 μL of buffer in each well. […] A signal test to check background fluorescence and basal fluorescence signal is performed. […]

SMILES	EC50
Cn1cc(-c2ccc(Cc3cc(C(=O)O)c(=O)n4ccccc34)nc2)cn1 [Example 5, 1-{[5-(1-Methyl-1H-pyrazol-4-yl)pyridin-2-yl]methyl}-4-oxo-4H-quinolizine-3-carboxylic acid]	213 nM
O=C(O)c1cc(Cc2ccc(-c3ccccc3)cc2)c2ccccn2c1=O [Example 4, 1-(Biphenyl-4-ylmethyl)-4-oxo-4H-quinolizine-3-carboxylic acid]	110 nM
O=C(O)c1cc(Cc2ccc(Cl)cc2)c2ccccn2c1=O [Example 3, 1-(4-Chlorobenzyl)-4-oxo-4H-quinolizine-3-carboxylic acid]	201 nM
